The subject of one test is HeLa. The experiment in a line: Cytotoxicity against human HeLa cells up to 200 uM after 48 hrs by MTT assay.
For test [1], the target named is Human immunodeficiency virus type 1 reverse transcriptase (Human immunodeficiency virus 1, UniProt Q72547). In words: Inhibition of HIV1 reverse transcriptase activity after 1 hr by ELISA.

The record followed here is ChEMBL document CHEMBL1641424, “Synthesis and biological activity of novel 5'-arylamino-nucleosides by microwave-assisted one-pot tandem Staudinger/aza-Wittig/reduction” (Bioorg Med Chem Lett, 2011).

Active and inactive are the calls of the source. The calls are words filed in the database; no cut-off is given here.

On to `O=c1ccn([C@@H]2O[C@H](CNCc3c(Cl)cccc3Cl)[C@@H](O)[C@H]2O)c(=O)[nH]1`, for which the outcome in the test with HeLa was inactive. In test [1], the half-inhibitory concentration (IC50) stood at 4.72 µM.
For `O=c1ccn([C@@H]2O[C@H](CNCc3c(F)cccc3Cl)[C@@H](O)[C@H]2O)c(=O)[nH]1`, in that order: “inactive” and 4.99 µM.
On to `O=c1[nH]c(=O)n([C@@H]2O[C@H](CNCc3ccccc3Cl)[C@@H](O)[C@H]2O)cc1F`, for which the result with HeLa was inactive. In test [1], this compound showed a half-inhibitory concentration (IC50) of 3.53 µM.
Consider `O=c1ccn([C@@H]2O[C@H](CNCc3ccc(Cl)cc3)[C@@H](O)[C@H]2O)c(=O)[nH]1`, for which the result in the test on HeLa was inactive. In test [1], this compound gave a half-inhibitory concentration (IC50) of 2.82 µM.
In the case of `O=c1[nH]c(=O)n([C@@H]2O[C@H](CNCc3c(F)cccc3Cl)[C@@H](O)[C@H]2O)cc1F`, in the test with HeLa, the outcome was inactive. The half-inhibitory concentration (IC50) in test [1] was 3.9 µM.
Taken in the same sequence, the figures for `O=c1[nH]c(=O)n([C@@H]2O[C@H](CNCc3ccc(Cl)cc3)[C@@H](O)[C@H]2O)cc1F` were “inactive” and 3.75 µM.
Taken in the same sequence, the figures for `O=c1ccn([C@@H]2O[C@H](CNCc3ccccc3Cl)[C@@H](O)[C@H]2O)c(=O)[nH]1` were “inactive” and 6.13 µM.
As to `O=c1[nH]c(=O)n([C@@H]2O[C@H](CNCc3c(Cl)cccc3Cl)[C@@H](O)[C@H]2O)cc1F`, the outcome in the test with HeLa was inactive. Besides, the IC50 in test [1] was 4.84 µM.
